Assay results: publication PMC11009625, “Antibiotic class with potent in vivo activity targeting lipopolysaccharide synthesis in Gram-negative bacteria” (Proceedings of the National Academy of Sciences of the …, 2024)
Values after ≈ are worked out from the molar mass of the structure shown. Like-named read-outs stand apart in the source and are kept apart here.

What was measured:
Format in all cases: cell-based
[1] = tested on: clinical MDR E. coli isolates; assay: MIC, clinical multi-drug resistant E. coli isolates; settings: for MIC: Escherichia coli
Experimental: (§1) Minimum inhibitory concentration (MIC) values were determined according to the Clinical Laboratory Standards Institute guidelines. Frequency of resistance was determined by plating ~5 × 10^8 bacterial cells on agar-solidified media plates containing test compound at concentrations corresponding to four times the measured solid-media MIC of the strains. Colonies were counted after 24 h, restreaked onto media containing the same concentration of compound, and the MIC remeasured against the assayed compound. Genomic DNA from isolated clones was sequenced by paired-end sequencing on an Illumina MiSeq device. Complete experimental details available in SI Appendix. […]
(§2) Minimum inhibitory concentration (MIC) determination. Broth microdilution and agar dilution MIC assays were conducted according to CLSI guidelines (M07-2012). Appropriate inoculation suspension density was assessed using a Sensititre Nephelometer with a Sensititre 0.5 […]
(§3) McFarland Standard. […]
Whole-genome sequencing and data analysis. Genomic DNA of selected clones was prepared using an Epicentre MasterPure Complete DNA Purification Kit. Whole-genome sequencing libraries were prepared using an Illumina Nextera XT Library Preparation Kit. The libraries were sequenced using an Illumina MiSeq device with a V3 600-cycle reagent kit. Whole-genome sequencing data was analyzed using CLC Genomics Workbench Version 11. To determine the genotype of MDR strains from the ENABLE strain collection, de novo assembled contigs were […]

[2] = tested on: clinical MDR K. pneumoniae isolates; assay: MIC, clinical multi-drug resistant K. pneumoniae isolates; settings: for MIC: Klebsiella pneumoniae
Experimental: as §1, §2, §3
To determine the […]
genotype of MDR strains from the ENABLE strain collection, de novo assembled contigs were […]

E. coli ATCC 25922 = assay: MIC (CLSI broth microdilution), wild-type E. coli; settings: ATCC 25922 (Table S4); for MIC: Escherichia coli, ATCC25922, read-out: MIC E. coli EN0001
Experimental: as §1
Minimum inhibitory concentration (MIC) determination. Broth microdilution and agar dilution
MIC assays were conducted according to CLSI guidelines (M07-2012). Appropriate inoculation
suspension density was assessed using a Sensititre Nephelometer with a Sensititre 0.5
as §3

[3] = read-out: MIC K. pneumoniae EN0140
[4] = read-out: MIC K. pneumoniae EN0142
[5] = read-out: MIC K. pneumoniae EN0143
[6] = read-out: MIC K. pneumoniae EN0144
[7] = read-out: MIC K. pneumoniae EN0145
[8] = read-out: MIC K. pneumoniae EN0233
[9] = read-out: MIC K. pneumoniae EN0245
[10] = read-out: MIC K. pneumoniae EN0504

Row | Molecule | MIC ([1]; read-out: MIC E. coli EN0134) | MIC ([1]; read-out: MIC E. coli EN0135) | MIC ([1]; read-out: MIC E. coli EN0136) | MIC ([1]; read-out: MIC E. coli EN0137) | MIC ([1]; read-out: MIC E. coli EN0138) | MIC ([1]; read-out: MIC E. coli EN0139) | MIC ([1]; read-out: MIC E. coli EN0303) | MIC ([1]; read-out: MIC E. coli EN0481) | MIC [2, 3] | MIC [2, 4] | MIC [2, 5] | MIC [2, 6] | MIC [2, 7] | MIC [2, 8] | MIC [2, 9] | MIC [2, 10] | MIC (E. coli ATCC 25922) | also measured
1 | CO/N=C(\C(=O)N[C@@H]1C(=O)N2C(C(=O)O)=C(COC(C)=O)CS[C@H]12)c1csc(N)n1 [Cefotaxime] | 8 µg/mL (≈ 17.6 µM) | 2 µg/mL (≈ 4.39 µM) | 4 µg/mL (≈ 8.78 µM) | > 64 µg/mL | > 64 µg/mL | > 64 µg/mL | > 64 µg/mL | > 64 µg/mL | > 64 µg/mL | > 64 µg/mL | 16 µg/mL (≈ 35.1 µM) | > 64 µg/mL | > 64 µg/mL | > 64 µg/mL | 64 µg/mL (≈ 141 µM) | > 64 µg/mL | 0.5 µg/mL (≈ 1.1 µM) | –
2 | CNC(C)C1CCC(N)C(OC2C(N)CC(N)C(OC3OCC(C)(O)C(NC)C3O)C2O)O1 (centres unmarked) [Gentamicin] | 2 µg/mL (≈ 4.19 µM) | > 64 µg/mL | > 64 µg/mL | > 64 µg/mL | 8 µg/mL (≈ 16.8 µM) | 2 µg/mL (≈ 4.19 µM) | 2 µg/mL (≈ 4.19 µM) | > 64 µg/mL | > 64 µg/mL | 64 µg/mL (≈ 134 µM) | 0.5 µg/mL (≈ 1.05 µM) | > 64 µg/mL | 2 µg/mL (≈ 4.19 µM) | > 64 µg/mL | 2 µg/mL (≈ 4.19 µM) | 0.5 µg/mL (≈ 1.05 µM) | 1 µg/mL (≈ 2.09 µM) | –
3 | C[C@@H](O)[C@H]1C(=O)N2C(C(=O)O)=C(S[C@@H]3CN[C@H](C(=O)N(C)C)C3)[C@H](C)[C@H]12 [Meropenem] | ≤ 0.125 µg/mL | ≤ 0.125 µg/mL | ≤ 0.125 µg/mL | ≤ 0.125 µg/mL | ≤ 0.125 µg/mL | ≤ 0.125 µg/mL | ≤ 0.125 µg/mL | ≤ 0.125 µg/mL | 2 µg/mL (≈ 5.22 µM) | 0.5 µg/mL (≈ 1.3 µM) | ≤ 0.125 µg/mL | 64 µg/mL (≈ 167 µM) | 8 µg/mL (≈ 20.9 µM) | 2 µg/mL (≈ 5.22 µM) | 2 µg/mL (≈ 5.22 µM) | 4 µg/mL (≈ 10.4 µM) | ≤ 0.125 µg/mL | –
4 | Colistin | – | – | – | – | – | – | – | – | – | – | – | – | – | – | – | – | – | MIC E. coli EN0135 ([1]; MDR (aac(3)-IIa, blaTEM-1B, blaSHV-12 ...)): 2 µg/mL; MIC E. coli EN0134 ([1]; MDR (blaCMY-4, blaTEM-1B ...)): 2 µg/mL; MIC E. coli EN0138 ([1]; MDR (blaCTX-M-14b, blaTEM-1C ...)): 2 µg/mL; MIC E. coli EN0139 ([1]; MDR (blaOXA-1, blaCTX-M-15 ...)): 2 µg/mL; MIC E. coli EN0137 ([1]; MDR (blaOXA-1, blaTEM-1B, blaCTX-M-15 ...)): 2 µg/mL; MIC E. coli EN0136 ([1]; MDR (blaOXA-2, blaTEM-1B, blaCTX-M-2 ...)): 1 µg/mL; MIC E. coli EN0481 ([1]; colistinR (mcr-1), MDR (rmtB ...)): 8 µg/mL; MIC E. coli EN0303 ([1]; colistinR (pmrB T156M), MDR): 8 µg/mL; MIC K. pneumoniae EN0144 ([2]; MBL (blaVIM-26), MDR): 2 µg/mL; MIC K. pneumoniae EN0145 ([2]; MDR (blaCTX-M-15 ...)): 2 µg/mL; MIC K. pneumoniae EN0140 ([2]; MDR (blaDHA-1 ...), OmpK36 loss): 2 µg/mL; MIC K. pneumoniae EN0143 ([2]; MDR (blaOXA-2, blaSHV-12 ...)): 2 µg/mL; MIC K. pneumoniae EN0142 ([2]; carbapenemR (blaKPC-2), MDR): 2 µg/mL; MIC K. pneumoniae EN0233 ([2]; carbapenemR (blaOXA-48), MDR, OmpK36 loss): 32 µg/mL; MIC K. pneumoniae EN0245 ([2]; colistinR (mgrB::IS10), MDR): 64 µg/mL; MIC K. pneumoniae EN0504 ([2]; colistinR, MDR): 64 µg/mL; MIC E. coli EN0001 (E. coli ATCC 25922): 2 µg/mL
